From publication PMC13503280, “A pharmacological modality to sequester homomeric proteins” (Nature Chemical Biology, 2026)

Legend:
[1] = test system: RAS GTPase-activating protein-binding protein 1; experiment: Colocalization with RAS GTPase-activating protein-binding protein 1 (stress granules); assay type: cell-based
NQO1 expression = experiment: qPCR for NQO1 expression in OCI-AML2 cells after washout; assay type: cell-based; conditions: OCI-AML2, 250 nM 20 h, from 48 h after treatment
Method: Cells were treated with either DMSO or compound at 250 nM, followed by washing out the treated medium after 20 h and reseeding in fresh medium. Cells were then collected at several time points post washout. Total RNA was extracted using RNeasy mini kit (Qiagen, 74104). […] PCR amplification was carried out in Step-One Plus thermocycler (Applied Biosystems). Relative quantification was performed using standard curves. GAPDH was used for normalization.

recombinant Keap1 BTB = target: T1, recombinant Keap1 BTB (Homo sapiens, UniProt Q14145, S172A); experiment: In vitro crosslinking of Keap1 BTB using GA; assay type: biochemical; conditions: 50 µM Keap1, 50 µM compound
T1 construct: The Keap1 BTB domain (48–180) encoding the single substitution S172A was cloned into pET28-bdSumo vector; His–bdSumo (N, cleaved yes); made in house; host or cells: E. coli BL21(DE3)
Method: Recombinant Keap1 samples were incubated at room temperature in desired conditions in a buffer containing 25 mM HEPES, 150 mM NaCl pH 8, 1 mM TCEP and 0.01% Tween. At the selected time point, each sample was treated with a 7.5% aqueous solution of GA (prepared fresh) for a final GA concentration of 0.125% and mixed gently. The crosslinking reaction was left at room temperature for 40 min, followed by addition of NuPage gel sample buffer with 20 mM DTT and boiling at 95 °C for 5 min. Lastly, 2–3 μg of each sample was loaded and run on an SDS–PAGE gel. Bands were visualized using a Coomassie blue solution.

HEK 293 cells = experiment: Viability measurements, HEK 293 cells; assay type: cell-based; conditions: HEK 293, 72 h
Method: (§1) Cells were seeded in a transparent-bottom, black 96-well plate, at 15,000 cells per well in sixfold replications. in 90 µl of medium and left to adhere for at least 4 h. The cells were then treated with the respective compound by adding 10 µl of medium–-compound mixture for a final volume of 100 µl in each well. Cell-Titer blue reagent was used to measure viability according to the manufacturer’s instructions. Plate reader measurements were performed on a Tecan Spark Control 10 M fluorescence system.

Keap1 = Keap1 (Homo sapiens, UniProt Q14145); experiment: Global proteomics of soluble lysate of U2OS cells; assay type: cell-based; conditions: EL133 250 nM, 20 h, RIPA lysis, relative to control
Method: Cells were incubated with DMSO at 0.1% or with compound for 20 h unless indicated differently, in quadruplicate. […] Samples were then reduced using DTT, followed by reaction with iodoacetamide. The labeled proteins were then precipitated on a dispersion of glass beads, followed by overnight trypsin digestion and purification of peptides. Samples were analyzed using an EASY-nLC 1200 nano-flow ultrahigh-performance LC system, equipped with a PepMap RSLC C18 column (particle size: 2 µm, pore size: 100 Å, diameter: 75 µm, length: 50 cm), mounted using an EASY-Spray source onto an Exploris 240 MS instrument. LC–MS-grade solvents were used for all chromatographic steps at 300 nl min^−1. The mobile phase consisted of solvent A (H2O + 0.1% formic acid) and solvent B (80% acetonitrile + 0.1% formic acid). Peptides were eluted from the column into the MS instrument using the following gradient: 1–40% B in 160 min, 40–100% B in 5 min, maintained at 100% for 20 min, 100–1% in 10 min and finally 1% for 5 min. […] Initially, data were acquired in data-independent acquisition mode. […] Four samples were analyzed per condition.
Data analysis was performed using Fragpipe[87],[88] […] Label-free quantification was performed using DIANN. After analysis, the quantified protein file was analyzed using Perseus[89]. […] Differences and P values were calculated using a double-sided Student’s t-test. […]

Ramos cells = experiment: Viability measurements, Ramos cells; assay type: cell-based; conditions: Ramos, 72 h
Method: as §1

OCI-AML2 cells = experiment: Viability measurements, OCI-AML2 cells; assay type: cell-based
Method: as §1

T1 sequence (Q14145 48-180 S172A): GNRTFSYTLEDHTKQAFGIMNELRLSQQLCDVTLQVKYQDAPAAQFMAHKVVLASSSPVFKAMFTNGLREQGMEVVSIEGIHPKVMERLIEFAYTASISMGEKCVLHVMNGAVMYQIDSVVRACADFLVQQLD
Chain of Keap1 (Q14145 whole entry): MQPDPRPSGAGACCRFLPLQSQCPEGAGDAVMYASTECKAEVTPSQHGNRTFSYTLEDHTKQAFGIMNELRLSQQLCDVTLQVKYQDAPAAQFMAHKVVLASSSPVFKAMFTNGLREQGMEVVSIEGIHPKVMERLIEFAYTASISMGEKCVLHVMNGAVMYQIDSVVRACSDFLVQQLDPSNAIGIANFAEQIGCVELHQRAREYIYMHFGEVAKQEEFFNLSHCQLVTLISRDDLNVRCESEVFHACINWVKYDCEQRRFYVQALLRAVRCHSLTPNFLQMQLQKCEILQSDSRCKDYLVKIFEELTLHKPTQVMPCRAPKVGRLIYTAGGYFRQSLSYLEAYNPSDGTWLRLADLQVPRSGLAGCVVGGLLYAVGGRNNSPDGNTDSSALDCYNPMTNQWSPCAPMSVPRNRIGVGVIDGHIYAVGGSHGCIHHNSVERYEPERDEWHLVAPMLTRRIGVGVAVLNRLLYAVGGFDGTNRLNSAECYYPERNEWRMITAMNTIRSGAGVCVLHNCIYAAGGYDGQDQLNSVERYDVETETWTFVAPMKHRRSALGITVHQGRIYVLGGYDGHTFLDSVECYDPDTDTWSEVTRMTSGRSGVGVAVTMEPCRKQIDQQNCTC

Keap1 level in soluble fraction (quantitative proteomics) (Keap1): significantly downregulated
IC50 (OCI-AML2 cells; Homo sapiens, OCI-AML2, 72 h): 265 nM
difference in viability IC50 over BDX (OCI-AML2 cells; OCI-AML2): fourfold
Compound: CC1(C)CCC2(C(=O)NCCOCCOCCNC(=O)C34CCC(C)(C)CC3C3C(=O)C=C5C6(C)C=C(C#N)C(=O)C(C)(C)C6CCC5(C)C3(C)CC4)CCC3(C)C(C(=O)C=C4C5(C)C=C(C#N)C(=O)C(C)(C)C5CCC43C)C2C1 (centres unmarked) [EL133]
formation of stress granules [1]: does not induce the formation of its characteristic stress granules
duration of NQO1 upregulation after washout (NQO1 expression): remained higher
higher-order assemblies after GA crosslinking (SDS–PAGE) (recombinant Keap1 BTB): induced the formation of higher-order assemblies
additional viability loss compared with BDX (HEK 293 cells): no additional viability loss
additional viability loss compared with BDX (Ramos cells): no additional viability loss
